In series [1] the target is T1, T. suis HEX-2 (Trichuris suis, UniProt A0A085NCI8).
T1 construct: gene M514_07548; recombinant C-terminally His-tagged, secreted from Pichia; residues 85–620 (long) or 135–620 (short) of the predicted protein
In words: pNP-β-GalNAc hydrolysis assay with purified enzyme, Ki fitted in Prism. Format: biochemical.

Substrate in series [2]: CC(=O)N[C@H]1[C@H](Oc2ccc([N+](=O)[O-])cc2)O[C@H](CO)[C@H](O)[C@@H]1O
In words: Michaelis–Menten kinetics, absorbance assay with purified enzyme (apparent Km). Format: biochemical, Trichuris suis.

Results on two molecules are retold here after article PMC11308363, “Bioinformatic, Enzymatic, and Structural Characterization of Trichuris suis Hexosaminidase HEX-2” (Biochemistry, 2024).

As to GalNAc-isofagomine, the affinity in series [1] corresponds to a Ki of 600 nM.

B1: T. suis HEX-2 (Trichuris suis) (protein)
chain: SNVFIPKRRIVHLDLKGAAPKPQHFRAFFEYFVRIGATGILIEWEDMFPYEGRLSDLRNGDAYSADDVRMILSTADQLRLEVIPLVQTIGHLEWLLKTHKFYSFRENPRNPQSVCVSNAEAVDLVLHLVDQVMAFHKDYGQFVHIGADEVYQYGECSRCVARMNKENLRREDLLLRHIVNVSKHVKTKYGKNVLMWHDMIANIDASLAEKYDLKNLVEPVLWNYAEDLEAFLPMGIWETFSAMVPYMWGSSAFKGADSPTRYHSNVKHYLENHISWIKQMSTASEKFREFRGLIFTGWQRYDHFAVLCEFLPIGIPSLTVNMLTIRNGRFDASVNDQAISIMQCVTGSDVKGDLYGCRFPGSDIYHHVQLLHEKKGEIEKLLLQQSVQGWLSNIAIDYNMSSPWYMNLIVPDLMTYKNQMIELSLNIRQAMLEMFYENAVDEFLFTYVDPVINHLQRLLDRATAIQRRDEFPVRPFPIKRTIDTTR
notes: recombinant C-terminally His-tagged, secreted from Pichia; residues 85–620 (long) or 135–620 (short) of the predicted protein
Take B1: the Km in series [2] amounted to 900 µM.
